Results published in ChEMBL document CHEMBL4673260, “Pyridine alkaloids with activity in the central nervous system” (Bioorg Med Chem, 2020).

Tests used:
[1] = target: Neuronal acetylcholine receptor; alpha3/beta4 (Rattus norvegicus, UniProt P04757+P12392); assay: Agonist activity at rat alpha3beta4 nAChR expressed in Xenopus laevis oocytes; type: cell-based, Oocyte
[2] = target: T1, Neuronal acetylcholine receptor subunit alpha-7 (Rattus norvegicus, UniProt Q05941); assay: Agonist activity at rat alpha7 nAChR expressed in Xenopus laevis oocytes; type: cell-based, Oocyte
Acetylcholinesterase [3] = target: Acetylcholinesterase (Electrophorus electricus, UniProt O42275)
Cholinesterase [4] = target: Cholinesterase (Homo sapiens, UniProt P06276); assay: Inhibition of BuChE (unknown origin)
Acetylcholinesterase [5] = target: T2, Acetylcholinesterase (Homo sapiens, UniProt P22303)
Rattus norvegicus [6] = species: Rattus norvegicus; assay: Antagonist activity at nAChR in Sprague-Dawley rat striatum assessed as inhibition of nicotine-evoked [3H] dopamine release at 100 nM relative to control; type: tissue-based
[7] = target: T3, Neuronal acetylcholine receptor; alpha4/beta2 (Rattus norvegicus, UniProt P09483+P12390); assay: Inhbition of [3H] nicotine binding to rat brain alpha4beta2 nAChR by Cheng-Prusoff equation analysis
[8] = Selectivity ratio of Ki for horse serum BuChE to Ki for human erythrocyte acetylcholinesterase
Cholinesterase [9] = target: Cholinesterase (Equus caballus, UniProt P81908); assay: Inhibition of horse serum BuChE by Ellman's colorimetric method
Acetylcholinesterase [10] = target: T2, Acetylcholinesterase; assay: Inhibition of human erythrocyte acetylcholinesterase using acetylthiocholine as substrate by Ellman's colorimetric method
[11] = target: T1, Neuronal acetylcholine receptor subunit alpha-7
Description: Displacement of [3H]MLA from rat alpha7 nAChR by liquid scintillation counting

[12] = target: T3, Neuronal acetylcholine receptor; alpha4/beta2
[13] = target: Dopamine beta-hydroxylase (Bos taurus, UniProt P15101); assay: Inhibition of bovine adrenal medulla DBH incubated for 25 mins
[14] = In vivo inhibition of DBH in human assessed as reduction in 3-methoxy-4-hydroxy-phenylglycol level in cerebrospinal fluid at 1.12g administered for 10 to 20 days; type: functional; settings: time 10-20 day
[15] = In vivo inhibition of DBH in rat assessed as norepinephrine expression in rat brain at 100 mg/kg, ip administered as single dose measured after 3 hrs by spectrophotofluorometric analysis (reference value: 0.42 ug/g); type: functional, organism-based
[16] = In vivo inhibition of DBH in rat assessed as norepinephrine expression in rat brain at 100 mg/kg, ip administered as single dose measured after 3 hrs by spectrophotofluorometric analysis (reference value: 0.22 ug/g); type: functional, organism-based
[17] = target: T4, Dopamine beta-hydroxylase (Bos taurus) (UniProt P15101); assay: Inhibition of bovine adrenal medulla DBH at 0.5 uM relative to control
T4 sequence (whole entry): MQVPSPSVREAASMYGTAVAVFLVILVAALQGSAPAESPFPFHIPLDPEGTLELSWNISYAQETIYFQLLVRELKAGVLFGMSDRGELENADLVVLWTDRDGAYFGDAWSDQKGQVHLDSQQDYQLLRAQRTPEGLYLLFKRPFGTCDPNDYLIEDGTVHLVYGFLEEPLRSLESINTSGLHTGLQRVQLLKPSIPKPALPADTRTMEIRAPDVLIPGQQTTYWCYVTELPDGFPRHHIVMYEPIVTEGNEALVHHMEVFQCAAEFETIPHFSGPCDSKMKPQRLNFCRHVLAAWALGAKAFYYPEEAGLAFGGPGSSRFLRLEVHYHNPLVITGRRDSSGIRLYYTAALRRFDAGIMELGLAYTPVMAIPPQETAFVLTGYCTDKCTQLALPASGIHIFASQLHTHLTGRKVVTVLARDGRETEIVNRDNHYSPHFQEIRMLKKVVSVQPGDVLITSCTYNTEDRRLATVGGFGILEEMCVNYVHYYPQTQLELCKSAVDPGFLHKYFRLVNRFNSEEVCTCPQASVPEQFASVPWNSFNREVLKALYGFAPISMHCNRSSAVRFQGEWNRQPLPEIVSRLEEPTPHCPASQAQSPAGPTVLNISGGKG

[18] = target: T4, Dopamine beta-hydroxylase (Bos taurus); assay: Inhibition of bovine adrenal medulla DBH at 1 uM relative to control
[19] = target: T4, Dopamine beta-hydroxylase (Bos taurus); assay: Inhibition of bovine adrenal medulla DBH at 0.05 uM relative to control
[20] = target: T4, Dopamine beta-hydroxylase (Bos taurus); assay: Inhibition of bovine adrenal medulla DBH at 0.005 uM relative to control
[21] = Toxicity in ip dosed mouse; type: organism-based; settings: in vivo
Rattus norvegicus [22] = assay: Antihypertensive activity in spontaneously hypertensive rat assessed as reduction in blood pressure at 50 mg/kg, po measured after 5 hr relative to control; type: functional; parameters: scale not given: the % may be the effect or the level left
Rattus norvegicus [23] = assay: Antihypertensive activity in spontaneously hypertensive rat assessed as reduction in blood pressure at 50 mg/kg, po measured after 3 hrs relative to control; type: functional; parameters: scale not given: the % may be the effect or the level left
Rattus norvegicus [24] = assay: Antihypertensive activity in spontaneously hypertensive rat assessed as reduction in blood pressure at 50 mg/kg, po measured after 1 hr relative to control; type: functional; parameters: scale not given: the % may be the effect or the level left

T1 sequence (Q05941 whole entry): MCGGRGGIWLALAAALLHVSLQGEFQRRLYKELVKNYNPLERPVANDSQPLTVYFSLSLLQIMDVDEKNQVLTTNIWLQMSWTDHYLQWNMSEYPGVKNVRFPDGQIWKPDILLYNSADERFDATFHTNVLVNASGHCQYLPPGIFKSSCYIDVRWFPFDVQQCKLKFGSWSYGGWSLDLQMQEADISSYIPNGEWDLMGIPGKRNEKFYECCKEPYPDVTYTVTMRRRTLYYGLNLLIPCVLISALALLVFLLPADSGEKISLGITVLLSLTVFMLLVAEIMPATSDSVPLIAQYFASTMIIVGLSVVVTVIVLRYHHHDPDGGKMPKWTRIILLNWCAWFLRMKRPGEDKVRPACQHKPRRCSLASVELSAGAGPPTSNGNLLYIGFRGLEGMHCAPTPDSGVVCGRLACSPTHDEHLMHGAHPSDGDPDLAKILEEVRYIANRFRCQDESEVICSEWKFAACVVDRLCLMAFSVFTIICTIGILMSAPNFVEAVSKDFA
T2 sequence (P22303 whole entry): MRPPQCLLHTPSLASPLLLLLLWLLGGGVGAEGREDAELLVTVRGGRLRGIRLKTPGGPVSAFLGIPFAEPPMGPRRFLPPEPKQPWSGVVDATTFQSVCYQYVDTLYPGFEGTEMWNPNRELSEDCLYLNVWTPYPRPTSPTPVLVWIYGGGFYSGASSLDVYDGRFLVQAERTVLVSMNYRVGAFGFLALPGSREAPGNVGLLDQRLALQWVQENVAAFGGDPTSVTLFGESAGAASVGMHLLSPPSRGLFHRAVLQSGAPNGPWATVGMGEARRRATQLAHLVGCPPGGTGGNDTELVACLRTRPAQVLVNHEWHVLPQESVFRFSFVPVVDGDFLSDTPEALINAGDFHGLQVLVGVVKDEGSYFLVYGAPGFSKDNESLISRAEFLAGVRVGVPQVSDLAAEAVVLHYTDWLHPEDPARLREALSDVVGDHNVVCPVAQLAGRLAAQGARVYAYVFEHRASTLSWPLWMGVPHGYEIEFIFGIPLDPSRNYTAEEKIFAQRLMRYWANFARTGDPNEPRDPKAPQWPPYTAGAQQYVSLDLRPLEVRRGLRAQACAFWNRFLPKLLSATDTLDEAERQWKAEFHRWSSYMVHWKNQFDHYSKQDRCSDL
T3 sequence (P09483 whole entry): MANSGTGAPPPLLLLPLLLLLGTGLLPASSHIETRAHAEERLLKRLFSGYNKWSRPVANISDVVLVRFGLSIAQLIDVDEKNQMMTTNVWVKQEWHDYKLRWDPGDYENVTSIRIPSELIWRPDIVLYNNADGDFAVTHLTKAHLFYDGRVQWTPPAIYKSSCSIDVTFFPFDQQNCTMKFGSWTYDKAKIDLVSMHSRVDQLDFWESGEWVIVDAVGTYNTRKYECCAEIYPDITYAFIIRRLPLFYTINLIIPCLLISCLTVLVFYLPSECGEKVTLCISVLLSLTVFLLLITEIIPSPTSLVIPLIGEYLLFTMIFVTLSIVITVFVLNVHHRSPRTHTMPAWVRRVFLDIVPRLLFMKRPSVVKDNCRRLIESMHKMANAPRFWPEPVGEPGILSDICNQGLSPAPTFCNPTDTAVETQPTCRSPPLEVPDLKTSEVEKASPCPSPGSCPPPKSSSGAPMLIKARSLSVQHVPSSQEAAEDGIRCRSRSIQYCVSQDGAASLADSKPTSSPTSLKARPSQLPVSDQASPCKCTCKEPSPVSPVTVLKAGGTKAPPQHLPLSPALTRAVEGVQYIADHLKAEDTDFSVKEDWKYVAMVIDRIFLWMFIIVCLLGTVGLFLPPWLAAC
T3 sequence (P12390 whole entry): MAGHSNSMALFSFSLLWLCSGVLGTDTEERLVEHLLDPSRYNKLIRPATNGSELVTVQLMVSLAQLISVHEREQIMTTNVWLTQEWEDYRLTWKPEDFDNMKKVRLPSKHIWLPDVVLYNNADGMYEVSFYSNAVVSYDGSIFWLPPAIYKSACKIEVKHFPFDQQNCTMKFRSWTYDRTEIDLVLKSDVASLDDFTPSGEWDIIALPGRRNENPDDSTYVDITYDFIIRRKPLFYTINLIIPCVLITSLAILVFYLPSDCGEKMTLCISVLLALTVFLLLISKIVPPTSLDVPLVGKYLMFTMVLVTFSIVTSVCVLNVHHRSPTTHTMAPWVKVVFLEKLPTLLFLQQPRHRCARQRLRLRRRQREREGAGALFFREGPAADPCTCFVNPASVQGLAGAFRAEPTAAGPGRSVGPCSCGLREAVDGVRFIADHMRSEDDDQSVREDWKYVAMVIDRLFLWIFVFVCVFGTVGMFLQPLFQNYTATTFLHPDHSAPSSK
Sequence of Cholinesterase (Homo sapiens, UniProt P06276) (P06276 whole entry): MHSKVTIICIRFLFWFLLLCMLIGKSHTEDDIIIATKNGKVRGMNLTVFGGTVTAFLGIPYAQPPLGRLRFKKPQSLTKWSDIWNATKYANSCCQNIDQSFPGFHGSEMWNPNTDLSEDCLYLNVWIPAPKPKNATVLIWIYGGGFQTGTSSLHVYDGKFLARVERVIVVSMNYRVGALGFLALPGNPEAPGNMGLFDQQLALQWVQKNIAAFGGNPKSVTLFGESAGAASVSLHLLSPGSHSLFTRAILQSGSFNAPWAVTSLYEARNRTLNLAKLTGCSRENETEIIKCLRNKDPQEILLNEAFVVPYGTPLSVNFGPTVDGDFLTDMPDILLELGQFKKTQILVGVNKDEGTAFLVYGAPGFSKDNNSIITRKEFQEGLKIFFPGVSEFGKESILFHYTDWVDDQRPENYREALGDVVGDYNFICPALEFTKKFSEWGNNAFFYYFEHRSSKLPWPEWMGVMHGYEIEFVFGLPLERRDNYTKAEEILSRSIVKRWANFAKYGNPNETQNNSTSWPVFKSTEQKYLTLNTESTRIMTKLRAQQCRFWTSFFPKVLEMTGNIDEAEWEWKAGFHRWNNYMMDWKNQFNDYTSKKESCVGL
Sequence of Acetylcholinesterase (Electrophorus electricus, UniProt O42275) (O42275 whole entry): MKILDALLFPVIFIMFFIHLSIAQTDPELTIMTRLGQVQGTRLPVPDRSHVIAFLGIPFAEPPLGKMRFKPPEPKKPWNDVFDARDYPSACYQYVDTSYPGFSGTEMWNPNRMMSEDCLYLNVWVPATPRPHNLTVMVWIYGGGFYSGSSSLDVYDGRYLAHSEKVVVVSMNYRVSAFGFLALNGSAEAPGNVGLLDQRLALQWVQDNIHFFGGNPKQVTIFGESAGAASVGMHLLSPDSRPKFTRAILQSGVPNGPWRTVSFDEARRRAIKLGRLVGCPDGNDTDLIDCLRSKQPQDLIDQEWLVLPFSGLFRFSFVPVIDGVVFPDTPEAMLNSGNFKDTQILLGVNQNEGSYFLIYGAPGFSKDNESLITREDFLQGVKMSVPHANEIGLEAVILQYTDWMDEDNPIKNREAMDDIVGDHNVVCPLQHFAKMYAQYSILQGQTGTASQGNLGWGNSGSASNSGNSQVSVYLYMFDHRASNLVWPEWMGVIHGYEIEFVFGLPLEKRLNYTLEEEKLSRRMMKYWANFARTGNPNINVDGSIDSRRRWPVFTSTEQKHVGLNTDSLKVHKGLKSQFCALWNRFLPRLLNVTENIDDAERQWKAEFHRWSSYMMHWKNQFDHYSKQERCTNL
Sequence of Cholinesterase (Equus caballus, UniProt P81908) (P81908 whole entry): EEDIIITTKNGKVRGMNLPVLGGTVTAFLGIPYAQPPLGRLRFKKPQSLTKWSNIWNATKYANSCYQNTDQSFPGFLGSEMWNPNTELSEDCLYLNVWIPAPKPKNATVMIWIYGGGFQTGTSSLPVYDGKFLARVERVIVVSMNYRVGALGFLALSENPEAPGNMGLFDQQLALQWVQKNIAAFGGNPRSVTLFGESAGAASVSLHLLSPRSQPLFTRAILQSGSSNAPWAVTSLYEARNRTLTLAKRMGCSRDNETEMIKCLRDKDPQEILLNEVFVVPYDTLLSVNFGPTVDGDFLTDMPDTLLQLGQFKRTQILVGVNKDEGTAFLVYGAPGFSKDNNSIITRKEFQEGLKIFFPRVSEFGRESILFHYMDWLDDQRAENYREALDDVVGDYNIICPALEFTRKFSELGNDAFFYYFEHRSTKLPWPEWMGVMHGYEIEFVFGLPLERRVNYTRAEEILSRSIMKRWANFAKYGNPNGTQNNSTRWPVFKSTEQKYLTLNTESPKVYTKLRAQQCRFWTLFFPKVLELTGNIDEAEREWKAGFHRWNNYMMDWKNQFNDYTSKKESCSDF

## c1cncc([C@@H]2CCCN2)c1 [NORNICOTINE]
[1]
  EC50: 614 µM
[2]
  EC50: 17.4 µM

## C=CC1C2C=C(CO)CC1(N)c1ccc(=O)[nH]c1C2 (centres undefined)
Acetylcholinesterase [3]
  IC50: 23.9 µM

## CC1=C[C@@H]2Cc3[nH]c(=O)ccc3[C@]3(C1)NCCC[C@H]23
Cholinesterase [4]
  IC50: 169 µM
Acetylcholinesterase [5]
  IC50: 2.57 µM

## CN1CCC[C@H]1c1cncc([C@@H]2CCCN2C)c1
Rattus norvegicus [6]
  inhibition: < 64%
[7]
  Ki: 1.18 µM

## CN1CCCC[C@H]1c1ccc(-c2cccnc2)nc1
[8]
  Ratio Ki: 8.6
Cholinesterase [9]
  Ki: 440 µM
Acetylcholinesterase [10]
  Ki: 51 µM

## O=c1c(O)ccc2n1CC1CNC2C1 (centres undefined)
[11]
  Ki: 260 µM
[12]
  Ki: 14 µM

## CCCCc1ccc(C(=O)O)nc1 [FUSARIC ACID]
[13]
  IC50: 0.05 µM
[14]
  inhibition (INH): 25%
[15]
  IC50: 0.4 µg/g
[16]
  IC50: 0.1 µg/g
[17]
  inhibition: 89%
[18]
  inhibition: 92%
[19]
  inhibition: 58%
[20]
  inhibition: 20%

## O=C(O)c1ccc(Cc2ccc(O)cc2)cn1
[21]
  LD50: 350 mg/kg
Rattus norvegicus [22]
  Activity: 23%
Rattus norvegicus [23]
  Activity: 16%
Rattus norvegicus [24]
  Activity: 21%
